Read-outs that look alike come from different tables or passages of the source.
What was measured:
[1] = target: Cy5-labelled Mcl1 (amino acids 171-321) C286S protein (UniProtKB Q07820) (Homo sapiens (Human), UniProt Q07820, C286S); assay: Inhibition of Mcl-1 by the fluorescence quenching assay (Example A, Method B); type: binding
In short: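 Cy5-labelled Mcl1 171-321 C286S (1 nM) quenched by TQ5WS-labelled PUMA peptide (10, 20 or 400 nM); displacement raises fluorescence (Ex 620/Em 680 nm). Buffer 10 mM HEPES, 150 mM NaCl, 0.05% Tween 20, pH 7.4, 5% DMSO; 2 h at room temperature, 11-point curves, IC50 converted to Ki (cKi/eKi).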

[2] = test system: H929 multiple myeloma tumor line; assay: In vitro cytotoxicity, MTT assay (Example B, Method A); type: cell-based; settings: H929 cells, 48 hours exposure, read-out: C50
Procedure: The cytotoxicity studies were carried out on the H929 multiple myeloma tumor line.
The cells are distributed onto microplates and exposed to the test compounds for 48 hours. The cell viability is then quantified by a colorimetric assay, the Microculture Tetrazolium Assay (Carmichael et al, Cancer Res. 1987, 47, 939-942).
The results are expressed in C50 which means concentration corresponding to […] of effect/inhibition.

Sequence of Cy5-labelled Mcl1 (amino acids 171-321) C286S protein (Q07820 171-321 C286S): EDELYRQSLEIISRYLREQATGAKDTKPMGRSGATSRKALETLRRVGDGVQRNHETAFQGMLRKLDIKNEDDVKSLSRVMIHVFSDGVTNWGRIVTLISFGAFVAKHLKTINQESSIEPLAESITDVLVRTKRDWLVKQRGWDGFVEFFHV

Compound | Ki [1] [nM] | IC50 ([2]; Homo sapiens, NCI-H929, 48 h) [nM] | IC50 [2] [nM]
Cc1cncc(C)c1OC[C@H](C)C[C@H]1Cc2ccccc2[C@]12CC[C@@](Nc1cccc(Cl)c1)(C(=O)O)CC2 [Example 584, (1r,2′S,4S)-4-(3-chloroanilino)-2′-{(2R)-3-[(3,5-dimethylpyridin-4-yl)oxy]-2-methylpropyl}-2′,3′-dihydrospiro[cyclohexane-1,1′-indene]-4-carboxylic acid] | 7.03 | 1760 | –
CC(O)c1ccc2c(c1)[C@]1(CC[C@@](Nc3cccc(Cl)c3)(C(=O)O)CC1)[C@@H](C[C@@H](C)COc1ccnc3c1[C@H](C)CC[C@H]3C)C2 (stereo partly drawn) [Example 865, (1r,2′S,4S)-4-(3-chloroanilino)-2′-[(2R)-3-{[(5R,8R)-5,8-dimethyl-5,6,7,8-tetrahydroquinolin-4-yl]oxy}-2-methylpropyl]-6′-(1-hydroxyethyl)-2′,3′-dihydrospiro[cyclohexane-1,1′-indene]-4-carboxylic acid] | 0.204 | 45.9 | –
CC[C@H]1CC[C@H](O)c2nccc(OC[C@H](C)C[C@H]3Cc4ccccc4[C@]34CC[C@@](Nc3cccc(Cl)c3)(C(=O)O)CC4)c21 [Example 678, (1r,2′S,4S)-4-(3-chloroanilino)-2′-[(2R)-3-{[(5S,8S)-5-ethyl-8-hydroxy-5,6,7,8-tetrahydroquinolin-4-yl]oxy}-2-methylpropyl]-2′,3′-dihydrospiro[cyclohexane-1,1′-indene]-4-carboxylic acid] | 221 | 9630 | –
CC(O)c1ccc2c(c1)[C@]1(CC[C@@](Nc3cccc(Cl)c3)(C(=O)O)CC1)[C@@H](C[C@@H](C)COc1ccnc3c1[C@H](C)CC[C@H]3F)C2 (single isomer, unassigned) [Example 863] | 0.382 | – | 76.7
Cc1cn(C[C@H](C)C[C@H]2Cc3ccccc3[C@]23CC[C@@](Nc2cccc(Cl)c2)(C(=O)O)CC3)c2c(c1=O)C(C)CCC2 (single isomer, unassigned) [Example 639] | 37.2 | 12600 | –
CC[C@@H]1CC[C@@H](O)c2nccc(OC[C@H](C)C[C@H]3Cc4ccccc4[C@]34CC[C@@](Nc3cccc(Cl)c3)(C(=O)O)CC4)c21 [Example 679, (1r,2′S,4S)-4-(3-chloroanilino)-2′-[(2R)-3-{[(5R,8R)-5-ethyl-8-hydroxy-5,6,7,8-tetrahydroquinolin-4-yl]oxy}-2-methylpropyl]-2′,3′-dihydrospiro[cyclohexane-1,1′-indene]-4-carboxylic acid] | 2.32 | 199 | –
CC(CC1Cc2ccccc2[C@]12CC[C@@](Nc1cccc(Cl)c1)(C(=O)O)CC2)C1CCC(=O)CC1 (single isomer, unassigned) [Example 572, (1r,4r)-4-(3-chloroanilino)-2′-[2-(4-oxocyclohexyl)propyl]-2′,3′-dihydrospiro[cyclohexane-1,1′-indene]-4-carboxylic acid] | 84.2 | – | 30000
C[C@@H](COc1ccnc2ccsc12)C[C@H]1Cc2ccccc2[C@]12CC[C@@](Nc1cccc(Cl)c1)(C(=O)O)CC2 [Example 591, (1r,2′S,4S)-4-(3-chloroanilino)-2′-{(2R)-2-methyl-3-[(thieno[3,2-b]pyridin-7-yl)oxy]propyl}-2′,3′-dihydrospiro[cyclohexane-1,1′-indene]-4-carboxylic acid] | 2.72 | 438 | –
C[C@@H](COc1ccnc2c1CCC2O)C[C@H]1Cc2ccccc2[C@]12CC[C@@](Nc1cccc(Cl)c1)(C(=O)O)CC2 (single isomer, unassigned) [Example 609] | 2.61 | – | 629
CC(C)(COc1ccnc2sccc12)CC1Cc2ccccc2C12CCC(Nc1cccc(Cl)c1)(C(=O)O)CC2 (single isomer, unassigned) [Example 623, (1r,4r)-4-(3-chloroanilino)-2′-{2,2-dimethyl-3-[(thieno[2,3-b]pyridin-4-yl)oxy]propyl}-2′,3′-dihydrospiro[cyclohexane-1,1′-indene]-4-carboxylic acid] | 2320 | – | 30000
C[C@@H](COc1ncnc2c1CCCC2)C[C@H]1Cc2ccccc2[C@]12CC[C@@](Nc1cccc(Cl)c1)(C(=O)O)CC2 [Example 637, (1r,2′S,4S)-4-(3-chloroanilino)-2′-{(2R)-2-methyl-3-[(5,6,7,8-tetrahydroquinazolin-4-yl)oxy]propyl}-2′,3′-dihydrospiro[cyclohexane-1,1′-indene]-4-carboxylic acid] | 5.13 | 1540 | –

The next lines start with results.

Ki [1] [nM] | Compound | IC50 ([2]; Homo sapiens, NCI-H929, 48 h) [nM] | IC50 [2] [nM]
28.7 | C[C@@H]1Cc2nccc(OC[C@H](C)C[C@H]3Cc4ccccc4[C@]34CC[C@@](Nc3cccc(Cl)c3)(C(=O)O)CC4)c2[C@@H](C)C1 [Example 666, (1r,2′S,4S)-4-(3-chloroanilino)-2′-[(2R)-3-{[(5S,7S)-5,7-dimethyl-5,6,7,8-tetrahydroquinolin-4-yl]oxy}-2-methylpropyl]-2′,3′-dihydrospiro[cyclohexane-1,1′-indene]-4-carboxylic acid] | 1070 | –
5.2 | C[C@@H](COc1ccnc2c1[C@@H](C)CCC2)C[C@H]1Cc2ccccc2[C@]12CC[C@@](Nc1cccc(Cl)c1)(C(=O)O)CC2 [Example 654, (1r,2′S,4S)-4-(3-chloroanilino)-2′-[(2R)-2-methyl-3-{[(5S)-5-methyl-5,6,7,8-tetrahydroquinolin-4-yl]oxy}propyl]-2′,3′-dihydrospiro[cyclohexane-1,1′-indene]-4-carboxylic acid] | 765 | –
1.5 | C[C@@H](COc1ccnc2c1[C@H](C)CCC2)CC1Cc2c(F)c(Cl)ccc2[C@]12CC[C@@](Nc1cccc(Cl)c1)(C(=O)O)CC2 (single isomer, unassigned) [Example 748] | 138 | –
0.279 | C[C@@H](COc1ccnc2c1[C@H](C)CC[C@H]2C)C[C@H]1Cc2cc(F)ccc2[C@]12CC[C@@](Nc1cccc(Cl)c1)(C(=O)O)CC2 [Example 773, (1r,2′S,4S)-4-(3-chloroanilino)-2′-[(2R)-3-{[(5R,8R)-5,8-dimethyl-5,6,7,8-tetrahydroquinolin-4-yl]oxy}-2-methylpropyl]-5′-fluoro-2′,3′-dihydrospiro[cyclohexane-1,1′-indene]-4-carboxylic acid] | 32.2 | –
1.58 | C[C@@H](COc1ccnc2c1[C@H](C)CCC2)CC1=Cc2c(Cl)c(F)ccc2[C@]12CC[C@@](Nc1cccc(Cl)c1)(C(=O)O)CC2 [Example 745, (1r,4R)-4′-chloro-4-(3-chloroanilino)-5′-fluoro-2′-[(2R)-2-methyl-3-{[(5R)-5-methyl-5,6,7,8-tetrahydroquinolin-4-yl]oxy}propyl]spiro[cyclohexane-1,1′-indene]-4-carboxylic acid] | 66.4 | –
12.1 | C[C@@H](COc1ccnc2c1[C@@H](C)CCC2)C[C@H]1Cc2cccc(F)c2[C@]12CC[C@@](Nc1cccc(Cl)c1)(C(=O)O)CC2 [Example 762, (1r,2′S,4S)-4-(3-chloroanilino)-7′-fluoro-2′-[(2R)-2-methyl-3-{[(5S)-5-methyl-5,6,7,8-tetrahydroquinolin-4-yl]oxy}propyl]-2′,3′-dihydrospiro[cyclohexane-1,1′-indene]-4-carboxylic acid] | 390 | –
80.7 | C[C@@H](COc1ccnc2c1[C@@H](C)CC[C@@H]2C)C[C@H]1Cc2ccccc2[C@]12CC[C@@](Nc1cccc(Cl)c1)(C(=O)O)CC2 [Example 661, (1r,2′S,4S)-4-(3-chloroanilino)-2′-[(2R)-3-{[(5S,8S)-5,8-dimethyl-5,6,7,8-tetrahydroquinolin-4-yl]oxy}-2-methylpropyl]-2′,3′-dihydrospiro[cyclohexane-1,1′-indene]-4-carboxylic acid] | 4970 | –
0.342 | C[C@@H](COc1ccnc2c1[C@H](C)CCC2)CC1=Cc2c(F)c(F)ccc2[C@]12CC[C@@](Nc1cccc(Cl)c1)(C(=O)O)CC2 [Example 744, (1r,4R)-4-(3-chloroanilino)-4′,5′-difluoro-2′-[(2R)-2-methyl-3-{[(5R)-5-methyl-5,6,7,8-tetrahydroquinolin-4-yl]oxy}propyl]spiro[cyclohexane-1,1′-indene]-4-carboxylic acid] | 65.2 | –
17.9 | C[C@@H](COc1ccnc2c1[C@H](C)CCC2)C[C@H]1Cc2ccc(Oc3ccccc3)cc2[C@]12CC[C@@](Nc1cccc(Cl)c1)(C(=O)O)CC2 [Example 793, (1r,2′S,4S)-4-(3-chloroanilino)-2′-[(2R)-2-methyl-3-{[(5S)-5-methyl-5,6,7,8-tetrahydroquinolin-4-yl]oxy}propyl]-6′-phenoxy-2′,3′-dihydrospiro[cyclohexane-1,1′-indene]-4-carboxylic acid] | 857 | –
0.19 | C[C@@H](COc1ccnc2c1[C@H](C)CCC2)CC1=Cc2ccc(CO)cc2[C@]12CC[C@@](Nc1cccc(Cl)c1)(C(=O)O)CC2 [Example 868, (1r,4R)-4-(3-chloroanilino)-6′-(hydroxymethyl)-2′-[(2R)-2-methyl-3-{[(5R)-5-methyl-5,6,7,8-tetrahydroquinolin-4-yl]oxy}propyl]spiro[cyclohexane-1,1′-indene]-4-carboxylic acid] | 231 | –
29.5 | C[C@@H](COc1ccnc2c1[C@@H](C)CC[C@@H]2F)C[C@H]1Cc2ccccc2[C@]12CC[C@@](Nc1cccc(Cl)c1)(C(=O)O)CC2 [Example 690, (1r,2′S,4S)-4-(3-chloroanilino)-2′-[(2R)-3-{[(5S,8S)-8-fluoro-5-methyl-5,6,7,8-tetrahydroquinolin-4-yl]oxy}-2-methylpropyl]-2′,3′-dihydrospiro[cyclohexane-1,1′-indene]-4-carboxylic acid] | 1410 | –

From patent publication US20240150293A1, “SPIROCYCLOHEXANE DERIVATIVES, PHARMACEUTICAL COMPOSITIONS CONTAINING THEM AND THEIR USES AS ANTI-APOPTOTIC INHIBITORS” (LES LABORATOIRES SERVIER, priority 2021, published 2024)
